Results taken from ChEMBL document CHEMBL5247626, “In vitro and in vivo biological evaluation of newly synthesized multi-target 20(R)-panaxadiol derivatives for treating Alzheimer's disease” (Eur J Med Chem, 2022).

Test system: PC-12
Assay: Neuroprotective activity against rat PC12 cells assessed as reduction in amyloid beta (25 to 35)-induced cytotoxicity at 15 uM incubated for 4 hrs followed by amyloid beta (25 to 35) treatment for 24 hrs by MTT assay relative to control
Assay type: functional
Design: scale not given: the % may be the effect or the level left
Conditions: time 28 hrs

Row | Structure (SMILES) | Activity [%]
1 | CC1(C)CCC[C@](C)([C@H]2CC[C@]3(C)[C@@H]2[C@H](O)C[C@@H]2[C@@]4(C)CC[C@H](OC(=O)c5cn(-c6ccc(Cl)cc6)nn5)C(C)(C)[C@@H]4CC[C@]23C)O1 | 36.15
2 | CC1(C)CCC[C@](C)([C@H]2CC[C@]3(C)[C@@H]2[C@H](O)C[C@@H]2[C@@]4(C)CC[C@H](OC(=O)Nc5cccc(F)c5)C(C)(C)[C@@H]4CC[C@]23C)O1 | 65.25
3 | COC(=O)[C@@H](Cc1ccccc1)NC(=O)CCC(=O)O[C@H]1CC[C@]2(C)[C@H]3C[C@@H](O)[C@@H]4[C@@H]([C@@]5(C)CCCC(C)(C)O5)CC[C@@]4(C)[C@]3(C)CC[C@H]2C1(C)C | 33.77
4 | CC1(C)CCC[C@](C)([C@H]2CC[C@]3(C)[C@@H]2[C@H](O)C[C@@H]2[C@@]4(C)CC[C@H](OC(=O)Nc5ccccc5)C(C)(C)[C@@H]4CC[C@]23C)O1 | 71.32
5 | CCCCCCNC(=O)O[C@H]1CC[C@]2(C)[C@H]3C[C@@H](O)[C@@H]4[C@@H]([C@@]5(C)CCCC(C)(C)O5)CC[C@@]4(C)[C@]3(C)CC[C@H]2C1(C)C | 50.09
6 | COc1cc(/C=C/C(=O)O[C@H]2CC[C@]3(C)[C@H]4C[C@@H](O)[C@@H]5[C@@H]([C@@]6(C)CCCC(C)(C)O6)CC[C@@]5(C)[C@]4(C)CC[C@H]3C2(C)C)ccc1O | 55.55
7 | CCCNC(=O)O[C@H]1CC[C@]2(C)[C@H]3C[C@@H](O)[C@@H]4[C@@H]([C@@]5(C)CCCC(C)(C)O5)CC[C@@]4(C)[C@]3(C)CC[C@H]2C1(C)C | 65.9
8 | CC1(C)CCC[C@](C)([C@H]2CC[C@]3(C)[C@@H]2[C@H](O)C[C@@H]2[C@@]4(C)CC[C@H](OC(=O)c5cn(-c6ccc(F)cc6)nn5)C(C)(C)[C@@H]4CC[C@]23C)O1 | 33.68
9 | CC1(C)CCC[C@](C)([C@H]2CC[C@]3(C)[C@@H]2[C@H](O)C[C@@H]2[C@@]4(C)CC[C@H](OC(=O)CN5CCOCC5)C(C)(C)[C@@H]4CC[C@]23C)O1.Cl | 23.96
10 | COc1ccc(OP(=O)(Oc2ccc(OC)cc2)O[C@H]2CC[C@]3(C)[C@H]4C[C@@H](O)[C@@H]5[C@@H]([C@@]6(C)CCCC(C)(C)O6)CC[C@@]5(C)[C@]4(C)CC[C@H]3C2(C)C)cc1 | 57.15
11 | CCNC(=O)O[C@H]1CC[C@]2(C)[C@H]3C[C@@H](O)[C@@H]4[C@@H]([C@@]5(C)CCCC(C)(C)O5)CC[C@@]4(C)[C@]3(C)CC[C@H]2C1(C)C | 65.69
12 | CC1(C)CCC[C@](C)([C@H]2CC[C@]3(C)[C@@H]2[C@H](O)C[C@@H]2[C@@]4(C)CC[C@H](OC(=O)c5cn(-c6ccccc6)nn5)C(C)(C)[C@@H]4CC[C@]23C)O1 | 25.49
13 | CC1(C)CCC[C@](C)([C@H]2CC[C@]3(C)[C@@H]2[C@H](O)C[C@@H]2[C@@]4(C)CC[C@H](OC(=O)/C=C/c5ccccc5)C(C)(C)[C@@H]4CC[C@]23C)O1 | 22.78
14 | COC(=O)[C@H](NC(=O)CCC(=O)O[C@H]1CC[C@]2(C)[C@H]3C[C@@H](O)[C@@H]4[C@@H]([C@@]5(C)CCCC(C)(C)O5)CC[C@@]4(C)[C@]3(C)CC[C@H]2C1(C)C)c1ccccc1 | 22.85
15 | COC(=O)[C@H](NC(=O)CCC(=O)O[C@H]1CC[C@]2(C)[C@H]3C[C@@H](O)[C@@H]4[C@@H]([C@@]5(C)CCCC(C)(C)O5)CC[C@@]4(C)[C@]3(C)CC[C@H]2C1(C)C)C(C)C | 25.34
16 | CC1(C)CCC[C@](C)([C@H]2CC[C@]3(C)[C@@H]2[C@H](O)C[C@@H]2[C@@]4(C)CC[C@H](OC(=O)CN5CCN(Cc6ccccc6)CC5)C(C)(C)[C@@H]4CC[C@]23C)O1.Cl | 37.37
17 | C=CCNC(=O)O[C@H]1CC[C@]2(C)[C@H]3C[C@@H](O)[C@@H]4[C@@H]([C@@]5(C)CCCC(C)(C)O5)CC[C@@]4(C)[C@]3(C)CC[C@H]2C1(C)C | 70.06
18 | CC1(C)CCC[C@](C)([C@H]2CC[C@]3(C)[C@@H]2[C@H](O)C[C@@H]2[C@@]4(C)CC[C@H](OC(=O)Nc5ccc(Cl)cc5)C(C)(C)[C@@H]4CC[C@]23C)O1 | 64.16
19 | CC1(C)CCC[C@](C)([C@H]2CC[C@]3(C)[C@@H]2[C@H](O)C[C@@H]2[C@@]4(C)CC[C@H](OC(=O)c5cn(-c6ccc([N+](=O)[O-])cc6)nn5)C(C)(C)[C@@H]4CC[C@]23C)O1 | 23.76
20 | CC(C)NC(=O)O[C@H]1CC[C@]2(C)[C@H]3C[C@@H](O)[C@@H]4[C@@H]([C@@]5(C)CCCC(C)(C)O5)CC[C@@]4(C)[C@]3(C)CC[C@H]2C1(C)C | 69.45
21 | COc1cc(/C=C/C(=O)O[C@H]2CC[C@]3(C)[C@H]4C[C@@H](O)[C@@H]5[C@@H]([C@@]6(C)CCCC(C)(C)O6)CC[C@@]5(C)[C@]4(C)CC[C@H]3C2(C)C)cc(OC)c1OC | 36.23
22 | CC1(C)CCC[C@](C)([C@H]2CC[C@]3(C)[C@@H]2[C@H](O)C[C@@H]2[C@@]4(C)CC[C@H](OC(=O)NC5CCCCC5)C(C)(C)[C@@H]4CC[C@]23C)O1 | 66.39
23 | CCCCCCCNC(=O)O[C@H]1CC[C@]2(C)[C@H]3C[C@@H](O)[C@@H]4[C@@H]([C@@]5(C)CCCC(C)(C)O5)CC[C@@]4(C)[C@]3(C)CC[C@H]2C1(C)C | 59.9
24 | COc1ccc(-n2cc(C(=O)O[C@H]3CC[C@]4(C)[C@H]5C[C@@H](O)[C@@H]6[C@@H]([C@@]7(C)CCCC(C)(C)O7)CC[C@@]6(C)[C@]5(C)CC[C@H]4C3(C)C)nn2)cc1 | 52.37
25 | CC1(C)CCC[C@](C)([C@H]2CC[C@]3(C)[C@@H]2[C@H](O)C[C@@H]2[C@@]4(C)CC[C@H](OC(=O)/C=C/c5ccco5)C(C)(C)[C@@H]4CC[C@]23C)O1 | 40.56
26 | CC1(C)CCC[C@](C)([C@H]2CC[C@]3(C)[C@@H]2[C@H](O)C[C@@H]2[C@@]4(C)CC[C@H](OC(=O)/C=C/c5ccc(N6CCOCC6)cc5)C(C)(C)[C@@H]4CC[C@]23C)O1 | 32.75
27 | COc1ccc(NC(=O)O[C@H]2CC[C@]3(C)[C@H]4C[C@@H](O)[C@@H]5[C@@H]([C@@]6(C)CCCC(C)(C)O6)CC[C@@]5(C)[C@]4(C)CC[C@H]3C2(C)C)cc1 | 65.27
28 | CC1(C)CCC[C@](C)([C@H]2CC[C@]3(C)[C@@H]2[C@H](O)C[C@@H]2[C@@]4(C)CC[C@H](OC(=O)CN5CCCCC5)C(C)(C)[C@@H]4CC[C@]23C)O1.Cl | 12.66
29 | CC1(C)CCC[C@](C)([C@H]2CC[C@]3(C)[C@@H]2[C@H](O)C[C@@H]2[C@@]4(C)CC[C@H](OP(=O)(Oc5ccc(F)cc5)Oc5ccc(F)cc5)C(C)(C)[C@@H]4CC[C@]23C)O1 | 48.68
30 | CC1(C)CCC[C@](C)([C@H]2CC[C@]3(C)[C@@H]2[C@H](O)C[C@@H]2[C@@]4(C)CC[C@H](OC(=O)Nc5ccc(F)cc5)C(C)(C)[C@@H]4CC[C@]23C)O1 | 67.4
